This note sets out measurements from US9452159B2, “6-aminopyridine-3-ol derivatives or pharmaceutically acceptable salts thereof, and pharmaceutical composition containing same as active ingredients for preventing or treating diseases caused by angiogenesis” (Research Cooperation Foundation of Yeungnam University, priority 2011, dated 2016).

The test system of data set [1] is Male Balb/c mice. The experiment in a line: Toxicity test, single oral administration. Format: in vivo. To be noted: once, 0.5 g/kg, 1 g/kg and 2 g/kg in 0.5% methylcellose, 7 days. As to the method: Male Balb/c mice were orally administered once with Compound 6a suspended in a 0.5% methylcellose solution, in a dosage of each of 0.5 g/kg, 1 g/kg, and 2 g/kg, and then, for 7 days, the survival rate and body weight of the mice were measured.
After the administration, the death, clinical symptoms, and body weight change of the mice were analyzed, and a hematological examination and a blood biochemical examination were performed. Then, the autopsy of the mice was performed, and abnormality of abdominal cavity organs and thoracic cavity organs was examined.

For data set [2], the system named is ARPE-19 (adult retinal pigment epithelium-19) cell line. As to the kind of experiment: Macular degeneration risk factor-derived ROS scavenging ability. The format is cell-based. To be noted: compared to a control. As to the method:
(§1) DCF-DA (2′,7′-dichlorofluorescein diacetate) was used to measure a VEGF-derived ROS scavenging ability in HUVEC cells. When ROS exists in cells, DCF-DA is oxidized into fluorescent DCF, thereby emitting green fluorescent light. 1×10^5 concentration of HUVEC was spread onto a 0.2% gelatin coated 8-well plate, and then incubated for 24 hours. The cells were pretreated with Compounds 6a or 6i for 3 hours and then, treated with VEGF for 15 minutes, and then, washed three times with PBS (pH 7.4), and then, 10 μM of DCF-DA was added to EBM-2 medium, which was then placed in dark condition for 30 minutes. Then, the cells were washed three times with PBS, and a degree of intracellular fluorescence was measured by using a fluorescent microscope.
The same experiment as used in Experimental Example 3 was performed, except that ARPE-19 (adult retinal pigment epithelium-19) cell line was treated with 4-hydroxynonenal (4-HNE) or angiotensin II (Ang II), which are macular degeneration risk factors, to identify ROS scavenging ability of Compound 6a.

Data set [3] relates to HUVEC cells. As to the kind of experiment: VEGF-derived ROS scavenging ability (DCF-DA fluorescence). Format: cell-based. To be noted: HUVEC pretreated 3 hours, then VEGF 15 minutes, compared to VEGF, FIG. 5. As to the method: as §1
In data set [4] the test system is A549 lung cancer cells. The experiment in a line: Oncogenesis-derived angiogenesis and tumor growth on CAM inoculated with A549 lung cancer cells. To be noted: A549 cells 1.5×10^6 cell/CAM, various concentrations, five days after inoculation; FIG. 4. Format: in vivo, chick. As to the method: Hen's fertile eggs were incubated, and on the 9th day, a window was formed in the same manner as in Experimental Example 1, and instead of a disc, A549 lung cancer cells were mixed with matrigel at a ratio of 1:1, and then the cells were treated with Compounds 6a and 6i and inoculated at a concentration of 1.5×10^6 cell/CAM. Five days after the inoculation, the CAM site where tumors developed was separated and washed with a phosphate buffer solution, and then, an image thereof was obtained by using a stereomicroscope (Stemi SV6 stereomicroscope, Carl Zeiss, Germany) and Image-Pro Plus software (Media Cybernetics; Silver Spring, Md., U.S.A.) to count the number of blood vessel branches, and the results were assayed.

Data set [5] concerns chorioallantoic membrane (CAM). As to the kind of experiment: Chorioallantoic membrane (CAM) assay, VEGF-derived angiogenesis. Format: in vivo, chick. As to the method: To examine angiogenesis inhibiting effects in vivo, CAM assay was performed (Nguyen Metal., Microvascular Res., 47, pp 31-40, 1994). Hen's fertile eggs were incubated at a temperature of 37° C. and in relative humidity 55%, and on the 10th day after the incubation, an air sac site was punched by using a hypodermic needle (Greencross Medical Science Corp, Korea) to form a first hole, and then, a planar site of the fertile egg where a window was to be formed was punched to form a second hole. Air was removed through the first pore of the air sac site to allow the chorioallantoic membrane (CAM) to be separated from the shell of the fertile egg, and this site was cut by using a grinding wheel (Multipro 395JA, Dremel, Mexico) to form a window. […] Through the window, the filter disc was placed on blood vessels, which were then treated with the compounds each dissolved in dimethylsulfoxide (DMSO) and diluted with phosphate buffer solution (PBS) at various concentrations. 3 days after the treatment with the compounds, the CAM site with the filter disc placed thereon was separated, and then washed with a phosphate buffer solution, and an image thereof was obtained by using a stereomicroscope (Stemi SV6 stereomicroscope, Carl Zeiss, Germany) and image-Pro Plus software (Media Cybernetics; Silver Spring, Md., U.S.A.) to count the number of blood vessel branches, and the obtained results were assayed.

For `Cc1nc(N)c(C)c(C)c1O` [Compound 6a, 6-amino-2,4,5-trimethylpyridin-3-ol], in data set [1], the “body weight change, blood examination, blood biochemical examination, and autopsy results” value is reported as “no toxicity change”; the clinical symptoms result was “did not have distinguishing clinical symptoms”; the death result is “did not die”. Further, in data set [2] (ARPE-19 treated with 4-HNE, FIG. 7), the “degree of intracellular fluorescence (ROS), 4-hydroxynonenal (4-HNE)” value is recorded as “substantially decreased”. In data set [2] (ARPE-19 treated with Ang II, FIG. 6), the “degree of intracellular fluorescence (ROS), angiotensin II (Ang II)” value is “substantially decreased”. Besides, the “degree of intracellular fluorescence (VEGF-derived ROS)” value in data set [3] is “substantial decrease”. Moreover, in data set [4], the oncogenesis-derived angiogenesis entry is given as “inhibited” and the tumor growth result is “inhibited”. For the same compound, the inhibition in vivo at 0.1 µM in data set [5] (Gallus gallus, 72 h, VEGF (50 ng/CAM) + 0.15 ng/CAM, 0.1 μM, 3 days after treatment, read-out: Inhibition ratio) turned out to be 64 ± 8.8%. Besides, the inhibition in vivo at 1 µM in data set [5] (Gallus gallus, 72 h, VEGF (50 ng/CAM) + 1.5 ng/CAM, 1 μM, 3 days after treatment, read-out: Inhibition ratio) worked out at 76.3 ± 5.2%. Also, in data set [5] (Gallus gallus, CAM treated with various concentrations, FIG. 3, read-out: IC50 with respect to angiogenesis inhibition), the IC50 came out at 2 nM. Moreover, the “Number of blood vessel branches/main blood vessel” value in data set [5] (VEGF (50 ng/CAM) + 0.15 ng/CAM, 0.1 μM, 3 days after treatment) is reported as 28 ± 3.3^8. The “Number of blood vessel branches/main blood vessel” value in data set [5] (VEGF (50 ng/CAM) + 1.5 ng/CAM, 1 μM, 3 days after treatment) is on record as 23.3 ± 2.0^8. The angiogenesis inhibiting effects result in data set [5] (VEGF-treated CAM, summary of Table 1, 6a compared with SU4312, batimastat and α-tocopherol) is given as “excellent angiogenesis inhibiting effects even at low concentration”.

What is called IC50 is the concentration that inhibits the measured activity by half.
